Results: publication PMC10507666, “Trifluoromethylthiolation of Tryptophan and Tyrosine Derivatives: A Tool for Enhancing the Local Hydrophobicity of Peptides” (The Journal of Organic Chemistry, 2023)
Counter-ions that a name gives are not always drawn. Residues, ends and D or L forms follow the SMILES beside them.

Experiments:
[1] = RP-HPLC retention time of EM-1 analogues (gradient); type: physicochemical; conditions: RP-HPLC analysis, gradient 20% → 60% MeCN + 0.1% TFA in H2O + 0.1% TFA; retention time used as support for enhanced local hydrophobicity
[2] = Chromatographic hydrophobicity index (CHI/HI, ϕ0) determination by isocratic RP-HPLC at pH 7; type: physicochemical; conditions: for Hydrophobicity index (HI): chromatographic, ϕ0 = –log k'w/S, pH 7, 50 mM ammonium acetate in mQ H2O / MeCN (6–22%), linear regression of four log k' values per peptide, UV 254 nm, Figure 1A; for Hydrophobicity index (HI) / k' (retention factor) / log(k'): isocratic RP-HPLC; for k' (retention factor) / log(k'): pH 7, UV 254 nm; for intercept log k'w at MeCN% = 0: linear regression of log k' versus MeCN content, pH 7, 50 mM ammonium acetate, Figure S5; for ΔHI (HI(CF3S)AA – HIAA): shift versus non-fluorinated tripeptide counterpart, chromatographic HI at pH 7
From the text: The hydrophobicity index (HI) shift ΔHI (HI(CF3S)AA – HIAA) is an assessment of the contribution of the CF3S substituent to the increase in local hydrophobicity. This method, developed by Valkó et al.,[27] has already been successfully applied to measure the increased local hydrophobicity of peptides containing fluorinated AAs.[6b],[28] This short peptide sequence was chosen to prevent the formation of secondary structures that could affect hydrophobicity (see the Supporting Information, Chapter 6, for details). […] It is noteworthy that the replacement of the Tyr residue with its CF3S-Tyr analogue provides a higher local enhancement of the hydrophobicity (ΔHI = HI(CF3S)Tyr – HITyrca. 12 units) compared to the Trp series (ΔHI = HI(CF3S)Trp – HITrpca. 8 units).
6. Hydrophobicity index determination
The peptides were prepared according to the SPPS general procedure.
The chromatographic hydrophobicity index (CHI) was determined according to the protocols described previously. 17 Experiments were performed at pH 7 using 50 mM ammonium acetate in mQ H2O and MeCN as mobile phase. Peptides 9-12 were dissolved in 50 mM ammonium acetate before injection (25 µL injection volume). Retention factors (k') were determined at λ = 254 nm at various MeCN concentrations ranging from 6–22% (k' = (tR–t0) / […]). Then, log k' was expressed as a function of MeCN content and linear regression was applied to four values per peptide. The intercept log k'w at MeCN% = 0 and the slopes S were extracted from the linear fit for each peptide (correlation coefficient: R2 > 0.99). The isocratic hydrophobicity index (CHI) was calcd for each peptide using the following equation: […]
RP-HPLC analysis: >95% purity; tR = 10.42 min (7% MeCN in ammonium acetate buffer (pH […]
(1 picture or pasted object on this page, not shown here)
Table of retention times (tR), dead times (t0), and calculated log k' and CHI for peptides 9-12 at pH 7: […]
Peptide 12 (22% MeCN in 50 mM ammonium acetate buffer, pH 7, 1 mL/min):
Chromatographic hydrophobicity index C HI (pH 7) of peptides 9-12 […]
Figure S5: RP-HPLC determination of the chromatographic hydrophobicity index CHI for peptides 9-12 at pH 7 by linear regression of log k' values as a function of MeCN content.

[3] = CF3S-tyramine versus tyramine, from pKa values in H2O/D2O 90:10
From the text: Figure 1 Biophysical property evaluation.
Finally, we assessed the influence of the CF3S group on the acidity of the vicinal phenol function in a simplified tyramine model carrying an ortho CF3S.

[4] = 6% MeCN in 50 mM ammonium acetate buffer
[5] = 7% MeCN in 50 mM ammonium acetate buffer
[6] = 8% MeCN in 50 mM ammonium acetate buffer
[7] = 9% MeCN in 50 mM ammonium acetate buffer
[8] = 12% MeCN in 50 mM ammonium acetate buffer
[9] = 13% MeCN in 50 mM ammonium acetate buffer
[10] = 14% MeCN in 50 mM ammonium acetate buffer
[11] = 15% MeCN in 50 mM ammonium acetate buffer
[12] = 17% MeCN in 50 mM ammonium acetate buffer
[13] = 18% MeCN in 50 mM ammonium acetate buffer
[14] = 19% MeCN in 50 mM ammonium acetate buffer
[15] = 20% MeCN in 50 mM ammonium acetate buffer
[16] = 21% MeCN in 50 mM ammonium acetate buffer
[17] = 22% MeCN in 50 mM ammonium acetate buffer

NC(=O)[C@H](Cc1ccccc1)NC(=O)[C@H](Cc1c(SC(F)(F)F)[nH]c2ccccc12)NC(=O)[C@@H]1CCCN1C(=O)[C@@H](N)Cc1ccc(O)cc1 [(CF3S)Trp-EM-1]
tR [1]: 10.9 min

NC(=O)[C@H](Cc1ccccc1)NC(=O)[C@H](Cc1c[nH]c2ccccc12)NC(=O)[C@@H]1CCCN1C(=O)[C@@H](N)Cc1ccc(O)c(SC(F)(F)F)c1 [(CF3S)Tyr-EM-1]
tR [1]: 11.6 min

NC(=O)[C@H](Cc1ccccc1)NC(=O)[C@H](Cc1c[nH]c2ccccc12)NC(=O)[C@@H]1CCCN1C(=O)[C@@H](N)Cc1ccc(O)cc1 [EM-1, endomorphin-1, reference compound]
tR [1]: 8.1 min

CC(C)C[C@H](NC(=O)[C@H](Cc1ccc(O)cc1)NC(=O)[C@H](C)N)C(=O)O [compound 9, TFA·H2N-L-Ala-L-Tyr-L-Leu-OH] (H-Ala-Tyr-Leu-OH)
Hydrophobicity index (HI) [2]: 11.37 | k' (retention factor) [2, 4]: 6.432 | log(k') [2, 4]: 0.808 | k' (retention factor) [2, 5]: 4.433 | log(k') [2, 5]: 0.647 | k' (retention factor) [2, 6]: 3.166 | log(k') [2, 6]: 0.501 | k' (retention factor) [2, 7]: 2.284 | log(k') [2, 7]: 0.359 | intercept log k'w at MeCN% = 0 [2]: 1.6998

CC(C)C[C@H](NC(=O)[C@H](Cc1c[nH]c2ccccc12)NC(=O)[C@H](C)N)C(=O)O [compound 10, TFA·H2N-Ala-Trp-Leu-OH] (H-Ala-Trp-Leu-OH)
Hydrophobicity index (HI) [2]: 19.13 | k' (retention factor) [2, 8]: 7.397 | log(k') [2, 8]: 0.869 | k' (retention factor) [2, 9]: 5.507 | log(k') [2, 9]: 0.741 | k' (retention factor) [2, 10]: 4.188 | log(k') [2, 10]: 0.622 | k' (retention factor) [2, 11]: 3.191 | log(k') [2, 11]: 0.504 | intercept log k'w at MeCN% = 0 [2]: 2.3234

CC(C)C[C@H](NC(=O)[C@H](Cc1ccc(O)c(SC(F)(F)F)c1)NC(=O)[C@H](C)N)C(=O)O [compound 11, TFA·H2N-Ala-(CF3S)Tyr-Leu-OH]
Hydrophobicity index (HI) [2]: 23.27 | k' (retention factor) [2, 11]: 9.198 | log(k') [2, 11]: 0.964 | k' (retention factor) [2, 12]: 5.352 | log(k') [2, 12]: 0.729 | k' (retention factor) [2, 13]: 4.091 | log(k') [2, 13]: 0.612 | k' (retention factor) [2, 14]: 3.149 | log(k') [2, 14]: 0.498 | intercept log k'w at MeCN% = 0 [2]: 2.7107 | ΔHI (HI(CF3S)AA – HIAA) [2]: ca. 12 units

CC(C)C[C@H](NC(=O)[C@H](Cc1c(SC(F)(F)F)[nH]c2ccccc12)NC(=O)[C@H](C)N)C(=O)O [compound 12, TFA·H2N-Ala-(CF3S)Trp-Leu-OH]
Hydrophobicity index (HI) [2]: 27.15 | k' (retention factor) [2, 14]: 9.031 | log(k') [2, 14]: 0.956 | k' (retention factor) [2, 15]: 6.844 | log(k') [2, 15]: 0.835 | k' (retention factor) [2, 16]: 5.211 | log(k') [2, 16]: 0.717 | k' (retention factor) [2, 17]: 4.025 | log(k') [2, 17]: 0.605 | intercept log k'w at MeCN% = 0 [2]: 3.1793 | ΔHI (HI(CF3S)AA – HIAA) [2]: ca. 8 units

CF3S-tyramine [6e]
increase of the acidity of the vicinal hydroxyl group [3]: 100 fold
